Assay results: ChEMBL document CHEMBL3352290, “Interactions with polynucleotides and antitumor activity of amidino and imidazolinyl substituted 2-phenylbenzothiazole mesylates” (Eur J Med Chem, 2014)

Columns and labels:
[1] = Solubility of the compound in water at 22 degC; assay type: physicochemical
[2] = Antiproliferative activity against human MOLT4 cells assessed as growth inhibition after 72 hrs by MTT assay; assay type: functional; conditions: MOLT-4, 72 h
[3] = Antiproliferative activity against human HCT116 cells assessed as growth inhibition after 72 hrs by MTT assay; assay type: functional; conditions: HCT-116, 72 h
[4] = tested on: SW-620; assay: Antiproliferative activity against human SW620 cells assessed as growth inhibition after 72 hrs by MTT assay; assay type: functional; conditions: SW-620, 72 h
[5] = tested on: MCF7; assay: Antiproliferative activity against human MCF7 cells assessed as growth inhibition after 72 hrs by MTT assay; assay type: functional; conditions: MCF7, 72 h
[6] = Antiproliferative activity against human H460 cells assessed as growth inhibition after 72 hrs by MTT assay; assay type: functional; conditions: NCI-H460, 72 h
[7] = tested on: HeLa; assay: Antiproliferative activity against human HeLa cells assessed as growth inhibition after 72 hrs by MTT assay; assay type: functional
[8] = Antiproliferative activity against human MIAPaCa2 cells assessed as growth inhibition after 72 hrs by MTT assay; assay type: functional; conditions: MIA PaCa-2, 72 h
[9] = tested on: Mus musculus; assay: Acute oral toxicity in po dosed BALB/C mouse after 24 hrs; assay type: organism-based; set-up: unit not given here; conditions: in vivo
[10] = tested on: Calf thymus DNA; assay: Binding affinity to calf thymus DNA assessed as spectral changes at pH7 by UV/vis spectra; assay type: nucleic-acid assay; conditions: Bos taurus
[11] = Binding affinity to poly(dA-dT)2 (unknown origin) assessed as spectral changes at pH7 by UV/vis spectra
[12] = Binding affinity to poly A-poly U (unknown origin) assessed as spectral changes at pH7 by UV/vis spectra
[13] = Binding affinity to poly G-poly C (unknown origin) assessed as spectral changes at pH7 by UV/vis spectra
[14] = tested on: Calf thymus DNA; assay: Binding affinity to calf thymus DNA assessed as binding constant at pH7 by UV/vis titration; assay type: nucleic-acid assay; conditions: Bos taurus
[15] = Binding affinity to poly(dA-dT)2 (unknown origin) assessed as binding constant at pH7 by UV/vis titration
[16] = Binding affinity to poly A-poly U (unknown origin) assessed as binding constant at pH7 by UV/vis titration
[17] = Binding affinity to poly G-poly C (unknown origin) assessed as binding constant at pH7 by UV/vis titration
[18] = tested on: Calf thymus DNA; assay: Binding affinity to calf thymus DNA assessed as change in melting temperature at pH7; assay type: nucleic-acid assay; conditions: Bos taurus
[19] = Binding affinity to poly(dA-dT)2 (unknown origin) assessed as change in melting temperature at pH7
[20] = Binding affinity to poly A-poly U (unknown origin) assessed as change in melting temperature at pH7
[21] = Binding affinity to poly A (unknown origin) assessed as spectral changes by UV/vis spectra
[22] = Binding affinity to poly U (unknown origin) assessed as spectral changes by UV/vis spectra
[23] = Binding affinity to poly G (unknown origin) assessed as spectral changes by UV/vis spectra
[24] = Binding affinity to poly C (unknown origin) assessed as spectral changes by UV/vis spectra
[25] = Binding affinity to poly A (unknown origin) assessed as binding constant at pH7 by UV/vis titration
[26] = Binding affinity to poly U (unknown origin) assessed as binding constant at pH7 by UV/vis titration
[27] = Binding affinity to poly G (unknown origin) assessed as binding constant at pH7 by UV/vis titration
[28] = Binding affinity to poly C (unknown origin) assessed as binding constant at pH7 by UV/vis titration

| SMILES | solubility [1] [µg/mL] | GI50 [2] [µM] | GI50 [3] [µM] | GI50 [4] [µM] | GI50 [5] [µM] | GI50 [6] [µM] | GI50 [7] [µM] | GI50 [8] [µM] | LD50 [9] | Activity [10] [%] | Activity [11] [%] | Activity [12] [%] | Activity [13] [%] | log Ks [14] | log Ks [15] | log Ks [16] | log Ks [17] | ΔTm [18] [°C] | ΔTm [19] [°C] | ΔTm [20] [°C] | other results |
| --- | --- | --- | --- | --- | --- | --- | --- | --- | --- | --- | --- | --- | --- | --- | --- | --- | --- | --- | --- | --- | --- |
| Cl.Nc1ccc2nc(-c3ccc(C4=NCCN4)cc3)sc2c1.O | 600 | – | – | – | – | – | – | – | – | – | – | – | – | – | – | – | – | – | – | – | – |
| CS(=O)(=O)O.N=C(N)c1ccc(-c2nc3ccc(N)cc3s2)cc1 | 12500 | 2.8 | 1.6 | 3.5 | 1.8 | 0.3 | 21 | 9.7 | 31.5 | – | – | – | – | – | – | – | – | – | – | – | – |
| Cl.N=C(N)c1ccc(-c2nc3ccc(N)cc3s2)cc1.O | 700 | – | – | – | – | – | – | – | – | – | – | – | – | – | – | – | – | – | – | – | – |
| Cl.N=C(N)c1ccc2nc(-c3ccc(N)cc3)sc2c1.O | 3300 | – | – | – | – | – | – | – | – | – | – | – | – | – | – | – | – | – | – | – | – |
| N=C(N)c1ccc2nc(-c3ccc(N)cc3)sc2c1 | – | – | – | – | – | – | – | – | – | 45.6 | 39.8 | 71.6 | 20.3 | 4.46 | 5.09 | 4.55 | 4.5 | 0.7 | 2.8 | 1.3 | Activity [21]: 23%; Activity [22]: 16.3%; Activity [23]: 23.4%; Activity [24]: 13.6%; log Ks [25]: 4.3; log Ks [26]: 4.81; log Ks [27]: 4.85; log Ks [28]: 4.57 |
| CS(=O)(=O)O.Nc1ccc2nc(-c3ccc(C4=NCCN4)cc3)sc2c1 | 145000 | 2.3 | 1.4 | 1.2 | 6.7 | 0.4 | 17.9 | 1.1 | 74.7 | – | – | – | – | – | – | – | – | – | – | – | – |
| N=C(N)c1ccc(-c2nc3ccc(N)cc3s2)cc1 | – | – | – | – | – | – | – | – | – | 42.2 | 37.5 | 45.5 | 25.3 | 4.48 | 5.04 | 4.5 | 4.4 | 0 | 2 | 1 | Activity [21]: 24.3%; Activity [22]: 14.7%; Activity [23]: 33.5%; Activity [24]: 13%; log Ks [25]: 3.99; log Ks [26]: 5.15; log Ks [27]: 4.6; log Ks [28]: 4.19 |
| CS(=O)(=O)O.N=C(N)c1ccc2nc(-c3ccc(N)cc3)sc2c1.O | 1100 | 2.2 | 6.1 | 4.7 | 15.1 | 3.2 | 17.5 | 8.5 | 26.1 | – | – | – | – | – | – | – | – | – | – | – | – |
| CS(=O)(=O)O.Nc1ccc(-c2nc3ccc(C4=NCCN4)cc3s2)cc1 | 130000 | 3.2 | 1.4 | 1.1 | 11.3 | 0.5 | 16.6 | 1.4 | 175 | – | – | – | – | – | – | – | – | – | – | – | – |
| Nc1ccc2nc(-c3ccc(C4=NCCN4)cc3)sc2c1 | – | – | – | – | – | – | – | – | – | 38.1 | 41.1 | 53.1 | 23.9 | 4.77 | 5.19 | 4.94 | 5.1 | 0 | 2.1 | 1.3 | Activity [21]: 29.5%; Activity [22]: 17.5%; Activity [23]: 28.6%; Activity [24]: 16.5%; log Ks [25]: 4.83; log Ks [26]: 4.43; log Ks [27]: 5.61; log Ks [28]: 5.23 |
| Nc1ccc(-c2nc3ccc(C4=NCCN4)cc3s2)cc1 | – | – | – | – | – | – | – | – | – | 37.1 | 42.5 | 55.5 | 30 | 5.23 | 5.41 | 5.44 | 4.89 | 0.7 | 2.7 | 3.9 | Activity [21]: 22.2%; Activity [22]: 18.3%; Activity [23]: 30.8%; Activity [24]: 16.3%; log Ks [25]: 5.6; log Ks [26]: 4.77; log Ks [27]: 6.46; log Ks [28]: 5.11 |
| Cl.Nc1ccc(-c2nc3ccc(C4=NCCN4)cc3s2)cc1.O | 200 | – | – | – | – | – | – | – | – | – | – | – | – | – | – | – | – | – | – | – | – |
